How the values were obtained:
DDR2 = biological target: T1, DDR2 (Homo sapiens, UniProt Q16832); assay: LanthaScreen Europium Kinase Binding assay, DDR2; conditions: 5 nM DDR2, 10 nM Kinase Tracer 178, 1 h at rt; Ki from IC50 by Cheng-Prusoff; read-out: Ki DDR2
T1 construct: purchased Life Technologies
T1 sequence (Q16832 22-855): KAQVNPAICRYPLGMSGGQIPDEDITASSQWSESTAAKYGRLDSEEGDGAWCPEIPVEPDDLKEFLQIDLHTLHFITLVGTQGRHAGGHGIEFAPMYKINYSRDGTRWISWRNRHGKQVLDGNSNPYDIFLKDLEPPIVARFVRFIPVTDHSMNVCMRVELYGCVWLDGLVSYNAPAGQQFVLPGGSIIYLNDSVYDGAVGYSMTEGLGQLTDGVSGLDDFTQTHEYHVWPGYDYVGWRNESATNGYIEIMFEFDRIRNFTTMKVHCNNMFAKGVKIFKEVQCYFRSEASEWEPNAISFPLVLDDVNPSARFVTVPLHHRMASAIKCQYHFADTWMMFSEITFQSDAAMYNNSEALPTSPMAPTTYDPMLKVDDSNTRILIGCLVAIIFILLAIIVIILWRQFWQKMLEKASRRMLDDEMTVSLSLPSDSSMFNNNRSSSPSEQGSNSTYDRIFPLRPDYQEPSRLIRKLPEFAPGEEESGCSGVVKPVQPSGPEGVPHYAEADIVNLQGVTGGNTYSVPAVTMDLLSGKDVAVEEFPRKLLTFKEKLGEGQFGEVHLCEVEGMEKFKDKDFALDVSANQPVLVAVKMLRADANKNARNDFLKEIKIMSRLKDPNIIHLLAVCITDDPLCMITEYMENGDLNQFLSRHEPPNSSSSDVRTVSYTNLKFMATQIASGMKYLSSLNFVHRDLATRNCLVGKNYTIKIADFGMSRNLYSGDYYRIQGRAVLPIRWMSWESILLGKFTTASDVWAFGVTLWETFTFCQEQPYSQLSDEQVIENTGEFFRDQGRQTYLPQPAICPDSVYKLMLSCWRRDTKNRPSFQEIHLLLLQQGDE
Method: (§1) DDR1 and DDR2 binding assays were performed using Life Technologies LanthaScreen™ Europium Kinase Binding assay. […] IC50 values were determined in GraphPad Prism 7.0 software, using 4 parameter model: log (inhibitor) vs. response. IC50 values were converted in Ki using the Cheng-Prusoff equation (Ki-IC50/(1+ [Tracer]/Kd).

DDR1 = biological target: T2, DDR1 (Homo sapiens, UniProt Q08345); assay: LanthaScreen Europium Kinase Binding assay, DDR1; conditions: 5 nM DDR1, 20 nM Kinase Tracer 178, 1 h at rt; Ki from IC50 by Cheng-Prusoff; read-out: Ki DDR1
T2 construct: purchased Carna Biosciences
Method: as §1

T2 sequence (Q08345 19-913): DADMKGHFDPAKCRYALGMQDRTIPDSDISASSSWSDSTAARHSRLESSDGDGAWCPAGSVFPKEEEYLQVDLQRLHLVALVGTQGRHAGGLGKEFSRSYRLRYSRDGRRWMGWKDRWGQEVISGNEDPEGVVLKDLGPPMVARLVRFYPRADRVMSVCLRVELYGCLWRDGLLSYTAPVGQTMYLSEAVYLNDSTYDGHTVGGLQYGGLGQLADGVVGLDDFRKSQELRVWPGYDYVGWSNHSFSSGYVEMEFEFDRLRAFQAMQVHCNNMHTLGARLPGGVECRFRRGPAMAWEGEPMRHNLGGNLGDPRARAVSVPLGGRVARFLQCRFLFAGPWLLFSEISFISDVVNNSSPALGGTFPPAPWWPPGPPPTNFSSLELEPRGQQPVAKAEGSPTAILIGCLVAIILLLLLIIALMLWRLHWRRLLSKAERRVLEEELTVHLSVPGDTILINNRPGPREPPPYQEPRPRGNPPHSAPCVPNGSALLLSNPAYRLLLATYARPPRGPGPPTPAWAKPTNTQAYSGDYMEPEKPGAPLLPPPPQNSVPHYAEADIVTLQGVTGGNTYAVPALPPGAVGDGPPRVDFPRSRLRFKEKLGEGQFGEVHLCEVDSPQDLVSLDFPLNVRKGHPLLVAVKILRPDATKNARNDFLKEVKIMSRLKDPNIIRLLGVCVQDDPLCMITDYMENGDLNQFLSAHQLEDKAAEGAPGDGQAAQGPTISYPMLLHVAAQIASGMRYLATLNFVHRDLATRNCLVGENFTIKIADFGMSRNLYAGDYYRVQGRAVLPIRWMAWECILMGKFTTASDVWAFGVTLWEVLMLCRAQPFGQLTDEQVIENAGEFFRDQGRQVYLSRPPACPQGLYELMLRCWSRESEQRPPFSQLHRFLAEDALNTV

Ki (DDR2) [nM]	Ki (DDR1) [nM]	Compound
25 to 100	25 to 100	O=C(Nc1cccc(C(F)(F)F)c1)NC1CC2(C1)CN(C(=O)c1cnc3[nH]ccc3c1)C2 [Example 3, 1-(2-(1H-pyrrolo[2,3-b]pyridine-5-carbonyl)-2-azaspiro[3.3]heptan-6-yl)-3-(3-(trifluoromethyl)phenyl)urea]
5 to 25	< 5	CN(C(=O)Nc1cncc(C(F)(F)F)c1)C1CC2(C1)CN(C(=O)c1ncnc3[nH]ccc13)C2 [Example 206, 1-(2-(7H-pyrrolo[2,3-d]pyrimidine-4-carbonyl)-2-azaspiro[3.3]heptan-6-yl)-1-methyl-3-(5-(trifluoromethyl)pyridin-3-yl)urea]
5 to 25	< 5	Cc1ccc(OC(F)(F)F)cc1NC(=O)N(C)C1CC2(C1)CN(C(=O)c1ccnc3[nH]ncc13)C2 [Example 188, 1-(2-(1H-pyrazolo[3,4-b]pyridine-4-carbonyl)-2-azaspiro[3.3]heptan-6-yl)-1-methyl-3-(2-methyl-5-(trifluoromethoxy)phenyl)urea]
5 to 25	< 5	CN(C(=O)Nc1cc(CO)cc(C(F)(F)F)c1)C1CC2(C1)CN(C(=O)c1cnn3ccsc13)C2 [Example 94, 3-(3-(hydroxymethyl)-5-(trifluoromethyl)phenyl)-1-methyl-1-(2-(pyrazolo[5,1-b]thiazole-7-carbonyl)-2-azaspiro[3.3]heptan-6-yl)urea]
5 to 25	< 5	CN(C(=O)Nc1cncc(C(F)(F)F)c1)C1CC2(C1)CN(C(=O)c1cnn3ccc(N4CCCC4)cc13)C2 [Example 214, 1-methyl-1-(2-(5-(pyrrolidin-1-yl)pyrazolo[1,5-a]pyridine-3-carbonyl)-2-azaspiro[3.3]heptan-6-yl)-3-(5-(trifluoromethyl)pyridin-3-yl)urea]
< 5	< 5	O=C(Nc1cccc(C(F)(F)F)c1)NC1CC2(C1)CN(C(=O)c1ccnc3cc[nH]c13)C2 [Example 46, 1-(2-(1H-pyrrolo[3,2-b]pyridine-7-carbonyl)-2-azaspiro[3.3]heptan-6-yl)-3-(3-(trifluoromethyl)phenyl)urea]
25 to 100	5 to 25	CN(C(=O)Nc1cccc(C(F)(F)F)c1)C1CC2(C1)CN(C(=O)c1cnn3ccncc13)C2 [Example 25, 1-methyl-1-(2-(pyrazolo[1,5-a]pyrazine-3-carbonyl)-2-azaspiro[3.3]heptan-6-yl)-3-(3-(trifluoromethyl)phenyl)urea]
5 to 25	< 5	Cn1ccn2ncc(C(=O)N3CC4(CC(NC(=O)Nc5cncc(C(F)(F)F)c5)C4)C3)c12 [Example 37, 1-(2-(1-methyl-1H-imidazo[1,2-b]pyrazole-7-carbonyl)-2-azaspiro [3.3]heptan-6-yl)-3-(5-(trifluoromethyl)pyridin-3-yl)urea]
< 5	< 5	Cn1ccn2ncc(C(=O)N3CC4(CC(NC(=O)Nc5cc(C#N)cc(OC(F)(F)F)c5)C4)C3)c12 [Example 71, 1-(3-cyano-5-(trifluoromethoxy)phenyl)-3-(2-(1-methyl-1H-imidazo[1,2-b]pyrazole-7-carbonyl)-2-azaspiro[3.3]heptan-6-yl)urea]
5 to 25	< 5	Cc1cnc(NC(=O)N(C)C2CC3(C2)CN(C(=O)c2cnn4ccn(C)c24)C3)cc1C(F)(F)F [Example 303, 1-methyl-1-(2-(1-methyl-1H-imidazo[1,2-b]pyrazole-7-carbonyl)-2-azaspiro[3.3]heptan-6-yl)-3-(5-methyl-4-(trifluoromethyl)pyridin-2-yl)urea]
5 to 25	< 5	COc1cc(NC(=O)N(C)C2CC3(C2)CN(C(=O)c2cnn4ccn(C)c24)C3)cc(C(F)(F)F)c1 [Example 287, 3-(3-methoxy-5-(trifluoromethyl)phenyl)-1-methyl-1-(2-(1-methyl-1H-imidazo[1,2-b]pyrazole-7-carbonyl)-2-azaspiro[3.3]heptan-6-yl)urea]
< 5	< 5	O=C(Nc1cccc(CC(F)(F)F)c1)NC1CC2(C1)CN(C(=O)c1ccnc3[nH]ncc13)C2 [Example 153, 1-(2-(1H-pyrazolo[3,4-b]pyridine-4-carbonyl)-2-azaspiro[3.3]heptan-6-yl)-3-(3-(2,2,2-trifluoroethyl)phenyl)urea]
5 to 25	< 5	CN(C(=O)Nc1cc(Cl)cc(C(F)(F)F)c1)C1CC2(C1)CN(C(=O)c1ncnc3[nH]ccc13)C2 [Example 286, 1-(2-(7H-pyrrolo[2,3-d]pyrimidine-4-carbonyl)-2-azaspiro[3.3]heptan-6-yl)-3-(3-chloro-5-(trifluoromethyl)phenyl)-1-methylurea]
< 5	< 5	O=C(Nc1cccc(C(F)(F)F)c1)NC1CC2(C1)CN(c1ccnc3[nH]ncc13)C2 [Example 15, 1-(2-(1H-pyrazolo[3,4-b]pyridin-4-yl)-2-azaspiro[3.3]heptan-6-yl)-3-(3-(trifluoromethyl)phenyl)urea]
< 5	< 5	Cc1ccc(OC(F)(F)F)cc1NC(=O)OC1CC2(C1)CN(C(=O)c1cnn3ccn(C)c13)C2 [Example 295, 2-(1-methyl-1H-imidazo[1,2-b]pyrazole-7-carbonyl)-2-azaspiro[3.3]heptan-6-yl(2-methyl-5-(trifluoromethoxy)phenyl)carba-mate]
5 to 25	< 5	CN(C(=O)Nc1cc(C(C)(C)C(F)(F)F)on1)C1CC2(C1)CN(C(=O)c1cnn3ccsc13)C2 [Example 235, 1-methyl-1-(2-(pyrazolo[5,1-b]thiazole-7-carbonyl)-2-azaspiro[3.3]heptan-6-yl)-3-(5-(1,1,1-trifluoro-2-methylpropan-2-yl)isoxazol-3-yl)urea]
5 to 25	< 5	CN(C(=O)Nc1cncc(C(F)(F)F)c1)C1CC2(C1)CN(C(=O)c1cnn3cc(-c4cncnc4)ccc13)C2 [Example 245, 1-methyl-1-(2-(6-(pyrimidin-5-yl)pyrazolo[1,5-a]pyridine-3-carbonyl)-2-azaspiro[3.3]heptan-6-yl)-3-(5-(trifluoromethyl)pyridin-3-yl)urea]
25 to 100	< 5	COc1ccc2c(C(=O)N3CC4(CC(N(C)C(=O)Nc5cncc(C(F)(F)F)c5)C4)C3)cnn2c1 [Example 250, 1-(2-(6-methoxypyrazolo[1,5-a]pyridine-3-carbonyl)-2-azaspiro[3.3]heptan-6-yl)-1-methyl-3-(5-(trifluoromethyl)pyridin-3-yl)urea]
25 to 100	< 5	CN(C(=O)Nc1cncc(C(C)(F)F)c1)C1CC2(C1)CN(C(=O)c1cnn3ccn(C)c13)C2 [Example 173, 3-(5-(1,1-difluoroethyl)pyridin-3-yl)-1-methyl-1-(2-(1-methyl-1H-imidazo[1,2-b]pyrazole-7-carbonyl)-2-azaspiro[3.3]heptan-6-yl)urea]
5 to 25	< 5	O=C(Nc1cc(OC(F)(F)F)ccn1)NC1CC2(C1)CN(C(=O)c1ccnc3[nH]ncc13)C2 [Example 154, 1-(2-(1H-pyrazolo[3,4-b]pyridine-4-carbonyl)-2-azaspiro[3.3]heptan-6-yl)-3-(4-(trifluoromethoxy)pyridin-2-yl)urea]
5 to 25	< 5	Cc1nc(NC(=O)N(C)C2CC3(C2)CN(C(=O)c2cnn4ccsc24)C3)cc(C(F)(F)F)n1 [Example 289, 1-methyl-3-(2-methyl-6-(trifluoromethyl)pyrimidin-4-yl)-1-(2-(pyrazolo[5,1-b]thiazole-7-carbonyl)-2-azaspiro[3.3]heptan-6-yl)urea]
< 5	< 5	O=C(Nc1cc(OC(F)(F)F)ccn1)NC1CC2(C1)CN(C(=O)c1ncnc3ccsc13)C2 [Example 101, 1-(2-(thieno[3,2-d]pyrimidine-4-carbonyl)-2-azaspiro[3.3]heptan-6-yl)-3-(4-(trifluoromethoxy)pyridin-2-yl)urea]
5 to 25	< 5	CN(C(=O)Nc1cncc(C(F)(F)F)c1)C1CC2(C1)CN(C(=O)c1cnn3ccn(C)c13)C2 [Example 169, 1-methyl-1-(2-(1-methyl-1H-imidazo[1,2-b]pyrazole-7-carbonyl)-2-azaspiro[3.3]heptan-6-yl)-3-(5-(trifluoromethyl)pyridin-3-yl)urea]
25 to 100	< 5	COCCc1cn2ncc(C(=O)N3CC4(CC(N(C)C(=O)Nc5cncc(C(F)(F)F)c5)C4)C3)c2n1C [Example 225, 1-(2-(2-(2-methoxyethyl)-1-methyl-1H-imidazo[1,2-b]pyrazole-7-carbonyl)-2-azaspiro[3.3]heptan-6-yl)-1-methyl-3-(5-(trifluoromethyl)pyridin-3-yl)urea]

From patent US20260285855A1, “HETEROARYL DERIVATIVES AS DDRS INHIBITORS” (CHIESI FARMACEUTICI S.P.A., priority 2023, published 2026)
